# Assays:
# [1] = test system: Jurkat cells (T-cell leukemia, human); assay: Detection of ROS with and without a post-staining wash step, flow cytometry; type: cell-based
# Experimental: Jurkat cells (T-cell leukemia, human) were treated with phosphate buffered saline (control; FIG. 8, panel A) or 200 μM tert-butyl-hydroperoxide (TBHP; FIG. 8, panel B) for one hour at 37° C., 5% CO2 prior to incubation with 500 nM Compound 1. Cell samples were directly analyzed on a Becton Dickinson LSRII flow cytometer equipped with a 488 nm laser line and a 525/50 bandpass filter for collection of fluorescence emission of Compound 1. Histogram overlays show cells analyzed immediately following 30 minutes incubation with Compound 1 (FIG. 8) compared to samples analyzed following three-3 mL wash steps (FIG. 8). […] The signal to noise ratio (or fold change in TBHP-treated cells as compared to control cells) in the no-wash samples was similar to the signal to noise ratio in the samples that were washed three times, 9.1 and 10.4, respectively, for the no-wash and the washed sample.
# Jurkat cells [2] = assay: Detection of oxidative stress using flow cytometry (menadione, TBHP); type: cell-based, human; conditions: menadione 25-100 μM or TBHP 50-200 μM 60 min, 5 μM probe, 488 nm laser, 530/30 filter
# Experimental: Jurkat cells were diluted in RPMI with 10% FBS to a density of 10^6 cells/ml. Control cells were treated with vehicle control or DMSO, and sample cells were treated with different concentrations of menadione (25 μM, 50 μM, or 100 μM), or were treated with different concentrations of Tert-butyl hydroperoxide (TBHP) (50 μM, 100 μM, or 200 μM) for 60 min. Compound 1 was added to a final concentration of 5 μM for the last 30 minutes of drug incubation. The samples were acquired and analyzed on an Attune® Acoustic Focusing Cytometer. Compound 1 fluorescence was detected using the 488 nm laser and a 530/30 nm bandpass emission filter. A total of 20,000 events were collected using the standard 200 μl/minute collection rate. An increase in Compound 1 fluorescence intensity is observed in menadione and TBHP-treated cells compared to their controls (see, FIG. 6).
# [3] = test system: Human osteosarcoma (U2-OS) cells; assay: Resistance to formaldehyde fixation and detergent permeabilization; type: cell-based; conditions: 100 μM menadione 1 hr, 5 μM probe, 4% formaldehyde, 0.1% Triton X-100
# Experimental: Human osteosarcoma (U2-OS) cells were plated on a 96-well plate at a density of 7,500 cells/well and incubated overnight at 37° C. The cells were treated with or without 100 μM menadione for 1 hr at 37° C. The cells were then stained with 5 μM Compound 1 and Hoechst 33342 by adding the probes to complete media and incubating at 37° C. for 30 min. The cells were washed with PBS and imaged on a Thermo Fisher Cellomics ArrayScan® VTI, either live or 4% formaldehyde fixed or formaldehyde-fixed and permeabilized with 0.1% Triton X-100.
# [4] = test system: Human osteosarcoma (U2-OS) cells; assay: Detection of TBHP- or menadione-induced ROS by fluorescence microscopy; type: cell-based; conditions: 200 μM TBHP 2 hrs or 100 μM menadione 1 hr, 5 μM probe for last 30 min, washed 3× PBS
# Experimental: Human osteosarcoma (U2-OS) cells were plated on MatTek 30 mm dishes at a density of 200,000 cells/dish and incubated at 37° C. The cells were then treated with or without 200 μM tert-butyl hydroperoxide (TBHP, 2 hrs at 37° C.) or 100 μM menadione (1 hr at 37° C.). The cells were stained with 5 μM Compound 1 for the last 30 min of the drug incubation. The cells were washed 3× with phosphate buffered saline (PBS) and imaged on a Zeiss Axiovert inverted microscope using a 40× objective.
# [5] = test system: Human aortic smooth muscle (HASM) cells; assay: Detection of angiotensin-II-induced oxidative stress by fluorescence microscopy; type: cell-based; conditions: 500 ng/ml angiotensin-II 4 hrs, 5 μM probe for last 30 min
# Experimental: Human aortic smooth muscle (HASM) cells were plated on MatTek 30 mm dishes at a density of 150,000 cells/dish and incubated at 37° C. The cells were then treated with or without 500 ng/ml angiotensin-II for 4 hrs. The cells were stained with 5 μM Compound 1 for last 30 min of the drug incubation. The cells were washed 3× with PBS and imaged on a Zeiss Axiovert inverted microscope using a 40× objective. An increase in the signal of Compound 1 as observed for all compounds tested, indicating an increase in oxidative stress in these cell models (see, FIG. 3).
# Jurkat cells [6] = assay: Detection of TBHP-induced ROS by flow cytometry, with or without NAC; type: cell-based, human; conditions: 500 nM probe
# Experimental: Jurkat cells were treated with phosphate buffered saline (FIG. 7, control), 200 μM tert-butyl-hydroperoxide (FIG. 7, TBHP), or 200 μM TBHP and 1 mM N-acetyl-L-cysteine (FIG. 7, TBHP+NAC), for one hour at 37° C., 5% CO2 prior to incubation with 500 nM Compound 1. Cell samples were analyzed using a Becton Dickinson LSRII flow cytometer equipped with a 488 nm laser line and a 525/50 bandpass filter for collection of fluorescence emission of Compound 1. TBHP is a membrane-permeant pro-oxidant used extensively in a model of oxidative stress in different systems. Reduction in the oxidative stress response induced by TBHP has been attributed to the ability of the antioxidant, NAC, to replenish intracellular glutathione levels. This reduces levels of reactive oxygen species.
# [7] = test system: Jurkat cells (T-cell leukemia, human); assay: Detection of ROS in complete media vs. protein-containing buffer, flow cytometry; type: cell-based; conditions: 500 nM probe
# Experimental: Jurkat cells (T-cell leukemia, human) were resuspended in complete medium (RPMI 1640 medium, GIBCO (Life Technologies, Carlsbad, Calif.), supplemented with 10% Fetal Bovine Serum, FBS) or phosphate buffered saline supplemented with 1% bovine serum albumin (BSA). Cells in both complete medium (FIG. 9, panel A) and buffered saline+1% BSA (FIG. 9, panel B) were treated with diluents control, phosphate buffered saline alone (FIG. 9, control) or 400 μM tert-butyl-hydroperoxide (FIG. 9, TBHP) for 30 minutes at 37° C., 5% CO2 prior to staining with 500 nM Compound 1. Cell samples were analyzed on a BD LSRII flow cytometer equipped with a 488 nm laser line and a 525/50 bandpass filter for collection of fluorescence emission of Compound 1. The median fluorescent intensity (MFI) of Compound 1 fluorescence in control cells (FIG. 9, panel A) and the MFI of Compound 1 fluorescence in TBHP-treated cells (FIG. 9, panel B) stained in complete media (FIG. 9, panel A) were increased compared to samples stained in protein-containing buffer (FIG. 9, panel B). As a consequence, the signal to noise ratio (or fold change in TBHP-treated cells as compared to control cells) in the samples stained in complete media (FIG. 9, panel A) is greater (13.6) than the signal to noise ratio in the samples stained in protein-containing buffer (9.6).
smiles,measurement,setting,value
"CCCCC1=C/C(=C/C2Sc3ccccc3N2C)c2ccccc2N1c1ccccc1 (stereo not shown) [Compound 1, (Z)-2-((2-butyl-1-phenylquinolin-4(1H)-ylidene)methyl)-3-methyl-2,3-dihydrobenzo[d]thiazole]","median fluorescence intensity (MFI), no-wash cells compared to washed cells","[1]; 500 nM probe 30 minutes, no wash vs three 3 mL wash steps",not significantly different
same,"signal to noise ratio (fold change in TBHP-treated cells as compared to control cells), no-wash sample","[1]; 200 μM TBHP 1 hour, 500 nM probe, no wash",9.1
same,"signal to noise ratio (fold change in TBHP-treated cells as compared to control cells), washed sample","[1]; 200 μM TBHP 1 hour, 500 nM probe, washed three times",10.4
same,fluorescence intensity in menadione and TBHP-treated cells compared to controls,Jurkat cells [2],increase
same,signal retention after formaldehyde fixation and detergent permeabilization,[3],retained well
same,signal of Compound 1 (fluorescence) in treated vs untreated cells,[4],increase
same,signal of Compound 1 (fluorescence) in treated vs untreated cells,[5],increase
same,"Mean Fluorescence Intensity (MFI), TBHP-treated cells",Jurkat cells [6]; 200 μM TBHP 1 hour,3944
same,"Mean Fluorescence Intensity (MFI), TBHP + NAC treated cells",Jurkat cells [6]; 200 μM TBHP and 1 mM N-acetyl-L-cysteine 1 hour,2768
same,"Mean Fluorescence Intensity (MFI), control cells",Jurkat cells [6]; phosphate buffered saline control,365
same,"signal to noise ratio (fold change in TBHP-treated cells as compared to control cells), protein-containing buffer","[7]; 400 μM TBHP 30 minutes, PBS + 1% BSA",9.6
same,"signal to noise ratio (fold change in TBHP-treated cells as compared to control cells), complete media","[7]; 400 μM TBHP 30 minutes, RPMI 1640 + 10% FBS",13.6
same,median fluorescent intensity (MFI) in complete media compared to protein-containing buffer,[7]; control and 400 μM TBHP-treated cells,increased

# Reference: US9518981B2, “Modified nucleic acid binding cyanine dyes for the detection of reactive oxygen species” (LIFE TECHNOLOGIES CORPORATION, priority 2012, dated 2016)
